Data reported in patent publication US8524911B2, “3-arylamino pyridine derivatives” (Merck Serono SA, priority 2004, dated 2013).

What was measured:
[1] = system: Murine colon C26 cells; assay: Tumor cell proliferation assay (ATP Lite), C26; type: cell-based; conditions: Mus musculus, 96 h, 4 days
Method in brief: (§1)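 Cells seeded at 1500/well (C26) or 2000/well (A375, MiaPaCa-2) grew overnight, then were exposed to serially diluted compounds (0.25% DMSO final) for 4 days in serum-containing DMEM or RPMI. Viability read by ATPlite luminescence; IC50 is the concentration giving 50% cell death.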

[2] = Microsomal stability assay, MLM; type: in vitro ADME; conditions: pH 7.4; 3 μM compound, 0.5 mg/ml mouse liver microsomes, 37° C., 2 mM NADPH; read-out: MLM t1/2
Protocol: (§2) Assay 3: Microsomal Stability Assay
(§3) Compounds were tested on their stability in human, rat and mouse liver microsomal preparations (HLM, RLM and MLM respectively). At a final concentration of 3 μM, compounds were incubated at 37° C. with 0.5 mg/ml human, rat or mouse liver microsomes in a buffer containing 50 mM phosphate, pH 7.4 and 2 mM NADPH. Pooled human liver microsomes or pooled male rat liver microsomes (Sprague Dawley) were obtained from NatuTec (Frankfurt, Germany). Incubations without NADPH served as negative controls. Reactions were stopped after 0, 15, 30, 45 or 60 min by the addition of acetonitrile and microsomes were pelleted by centrifugation (10 min at 6200×g). Supernatants were analyzed by HPLC regarding the concentration of mother compound. Finally, the half life of compounds in the regarding microsomal preparation was calculated.

[3] = Microsomal stability assay, RLM; type: in vitro ADME; conditions: male, Sprague Dawley, pooled rat liver microsomes, pH 7.4; 3 μM compound, 0.5 mg/ml rat liver microsomes, 37° C., 2 mM NADPH; read-out: RLM t1/2
Protocol: as §2, §3

[4] = Microsomal stability assay, HLM; type: in vitro ADME; conditions: pooled human liver microsomes, pH 7.4; 3 μM compound, 0.5 mg/ml human liver microsomes, 37° C., 2 mM NADPH; read-out: HLM t1/2
Protocol: as §2, §3

[5] = system: human melanoma A375 cells; assay: Tumor cell proliferation assay (ATP Lite), A375; type: cell-based; conditions: A-375, 96 h, 4 days
Method in brief: as §1

[6] = target: human MEK1 (Homo sapiens, UniProt Q02750); assay: MEK-1 Enzyme Assay (LANCE-HTRF); type: biochemical; conditions: 100 nM MEK1, 15 μM ATP, 300 nM ERK2, two hours; read-out: MEK inhibition
Sequence of human MEK1 (Q02750 whole entry): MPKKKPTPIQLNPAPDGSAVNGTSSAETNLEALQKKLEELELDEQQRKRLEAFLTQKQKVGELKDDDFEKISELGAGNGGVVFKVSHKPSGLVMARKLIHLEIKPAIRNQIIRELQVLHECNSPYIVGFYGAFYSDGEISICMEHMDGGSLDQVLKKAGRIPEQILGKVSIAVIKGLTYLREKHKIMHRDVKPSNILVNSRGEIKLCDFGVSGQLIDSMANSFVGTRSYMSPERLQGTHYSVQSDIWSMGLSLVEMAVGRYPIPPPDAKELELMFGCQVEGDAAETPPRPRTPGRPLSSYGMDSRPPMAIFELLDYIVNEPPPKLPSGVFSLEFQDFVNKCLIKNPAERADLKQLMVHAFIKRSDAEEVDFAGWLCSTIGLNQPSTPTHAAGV
Method in brief: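 TR-FRET readout of MEK1-catalysed ERK1 phosphorylation; after a 2 h reaction, Eu-anti-PY20 (5 nM) and anti-GST-APC (50 nM) were added in buffer with 50 mM EDTA and 0.05% BSA, then incubated 1 h in the dark.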

[7] = system: Caco-2 cells; assay: Caco-2 permeability assay; type: in vitro ADME; conditions: 10 μM, pH 7.4, 120 minutes; for Caco A-B: Papp apical to basolateral; for Caco B-A: Papp basolateral to apical
Protocol: Assay 4: Caco-2 Permeability Assay
Caco-2 cells obtained from the ATCC at passage number 27 are used. Cells (passage number 40-60) were seeded on to Millipore Multiscreen Caco-2 plates or Falcon HTS inserts at 1×10^5 cells/cm2. Cells were cultured for 20 days in DMEM and media was changed every two or three days. On day 20 the permeability study was performed.
Permeability was studied by applying compound to the apical surface of cell monolayers and measuring compound permeation into the basolateral compartment. The experiment was also performed in the reverse direction (B-A) to investigate active transport. Hanks Balanced Salt Solution (HBSS) pH 7.4 buffer with 25 mM HEPES and 10 mM glucose at 37° C. was used as the medium in permeability studies. Incubations were carried out in an atmosphere of 5% CO2 with a relative humidity of 95%.
The monolayers were prepared by rinsing both basolateral and apical surfaces twice with HBSS at 37° C. Cells were then incubated with HBSS in both apical and basolateral compartments for 40 minutes to stabilize physiological parameters.
HBSS was then removed from the apical compartment and replaced with test compound dosing solutions. The solutions were made by diluting 10 mM DMSO concentrates with HBSS to give a final test compound concentration of 10 μM (final DMSO concentration adjusted to 1%). The fluorescent integrity marker lucifer yellow was also included in the dosing solution. Analytical standards were made from dosing solutions. Test compound permeability was assessed in duplicate. On each plate compounds of known permeability characteristics were run as controls.
The apical compartment inserts were then placed into ‘companion’ plates containing fresh HBSS. For basolateral to apical (B-A) experiments the experiment was initiated by replacing buffer in the inserts then placing them in companion plates containing dosing solutions. At 120 minutes the companion plate was removed and apical and basolateral samples diluted for analysis by LC-MS/MS (the donor compartment was also sampled to permit determination of starting concentration after non-specific binding has occurred).
The integrity of the monolayers throughout the experiment is checked by monitoring lucifer yellow permeation using fluorimetric analysis. Lucifer yellow permeation was low if monolayers have not been damaged. Test and control compounds were quantified by LC-MS/MS cassette analysis using a 5-point calibration with appropriate dilution of the samples. Should lucifer yellow Papps were above QC limits in more than one well per test compound, the compound was re-tested.
The permeability coefficient for each compound (Papp) was calculated from the following equation: Papp=[dQ/dt]/[C0×A]
Whereby dQ/dt is the rate of permeation of the drug across the cells, C0 is the donor compartment concentration at time zero and A is the area of the cell monolayer. C0 is obtained from analysis of the donor compartment at the end of the incubation period.
Test compounds were grouped into low, medium or high absorption potential based on comparison with control compounds, which have known human absorption.
In addition, permeation was studied in both directions across the cells, and an asymmetry index was reported from mean A-B and B-A data. This was derived from: Papp(B-A)/Papp(A-B)
Wherein “+” means a caco A-B and caco B-A value of 1-10 and “++” means a caco A-B and caco B-A value of 11-100.

[8] = system: human melanoma cell MeI5; assay: Tumor cell proliferation assay (ATP Lite), MeI5; type: cell-based; conditions: MeI5 cells
Protocol: Assay 2: Tumor Cell Proliferation Assays (ATP Lite)
Murine colon C26, human melanoma A375 and MeI5 or human pancreatic MiaPaCa-2 cells were plated in 96 well Corning white plates (1500 cells/well for C26, and 2000 cells/well for A375, and MiaPaCa-2) and cultured overnight at 37° C. in 5% CO2. Inhibitors were serially diluted in 100% DMSO and subsequently added to cells to reach a final concentration of 0.25% DMSO. The cells were incubated for 4 days in the presence of test compounds in cell growth media (DMEM with 10% fetal bovine serum, 2 mM glutamine for C26, and MiaPaCa-2, and RPMI with 10% fetal bovine serum, 2 mM glutamine for A375). Cell proliferation was quantitated using the ATP lite cell proliferation kit (Packard). Columns 4-6 show the concentration of compounds required to induce 50% cell death (IC50 in μM) of […]. With “+” meaning 3 μM<IC50≦10 μM and “++” IC50≦3 μM and “n.d.” means not determined. Few compounds were also tested on human melanoma cell MeI5.

[9] = system: Tumors; conditions: patients; cited from earlier work
[10] = cited from earlier work

SMILES | IC50 [1] [µM] | half-life at 3 µM [2] [h] | half-life at 3 µM [3] [h] | half-life at 3 µM [4] [h] | IC50 [5] [µM] | IC50 [6] [nM] | IC50 [8] [nM] | Caco A-B [7] | Caco B-A [7] | efficacy in clinical phase II trials [9] | bioavailability [10]
Cc1cc(I)ccc1Nc1cnccc1C(=O)NOC[C@H](O)CO [Example 9, 3-[(2-methyl-4-iodophenyl)amino]-N-{[(2R)-2,3-dihydroxypropyl]oxy}-isonicotinamide] | 3 to 10 | > 2 | > 2 | > 2 | ≤ 3 | < 1000 |  | + (a caco A-B and caco B-A value of 1-10) | ++ (a caco A-B and caco B-A value of 11-100) |  | 
Cc1cc(I)ccc1Nc1cnccc1C(=O)NOC[C@@H](O)CO [Example 124, N—((S)-2,3-Dihydroxy-propoxy)-3-(4-iodo-2-methyl-phenylamino)-isonicotinamide] | 3 to 10 |  |  |  |  | < 1000 | ≤ 3000 |  |  |  | 
O=C(NOCC1CC1)c1ccc(F)c(F)c1Nc1ccc(I)cc1Cl [PD-184352] |  |  |  |  |  |  |  |  |  | lacking efficacy | low
CCONC(=O)c1ccncc1Nc1ccc(I)cc1C [Example 5, N-Ethoxy-3-[(4-iodo-2-methylphenyl)amino]isonicotinamide] | 3 to 10 |  |  |  | ≤ 3 | < 1000 | ≤ 3000 |  |  |  | 
Cc1cc(I)ccc1Nc1cnccc1C(=O)NS(C)(=O)=O [Example 123, N-[3-(4-Iodo-2-methyl-phenylamino)-pyridine-4-carbonyl]-methanesulfonamide] |  |  | 0.0167 to 0.5 | 0.517 to 2 |  | < 1000 |  |  |  |  | 
CCONC(=O)c1ccncc1Nc1ccc(Br)cc1C [Example 4, 3-[(4-Bromo-2-methylphenyl)amino]-N-ethoxyisonicotinamide] |  |  | 0.517 to 2 | 0.517 to 2 | ≤ 3 | < 1000 | 3000 to 10000 |  |  |  | 

Second part, led by results:

IC50 [1] [µM] | half-life at 3 µM [2] [h] | half-life at 3 µM [3] [h] | half-life at 3 µM [4] [h] | IC50 [5] [µM] | IC50 [6] [nM] | IC50 [8] [nM] | SMILES | Caco A-B [7] | Caco B-A [7] | efficacy in clinical phase II trials [9] | bioavailability [10]
 |  | 0.517 to 2 | > 2 |  | < 1000 |  | CNCCNc1nnc(-c2ccncc2Nc2ccc(Br)cc2F)o1 [Example 128, N-{5-[3-(4-Bromo-2-fluoro-phenylamino)-pyridin-4-yl]-[1,3,4]oxadiazol-2-yl}-N′-methyl-ethane-1,2-diamine] | ++ (a caco A-B and caco B-A value of 11-100) | ++ (a caco A-B and caco B-A value of 11-100) |  | 
 | > 2 | 0.517 to 2 | > 2 |  | < 1000 |  | C=CCNc1nnc(-c2ccncc2Nc2ccc(Br)cc2C)o1 [Example 129, [4-(5-Allylamino-[1,3,4]oxadiazol-2-yl)-pyridin-3-yl]-(4-bromo-2-methyl-phenyl)-amine] | ++ (a caco A-B and caco B-A value of 11-100) | ++ (a caco A-B and caco B-A value of 11-100) |  | 
 | 0.0167 to 0.5 | > 2 | > 2 |  |  |  | OCCNc1nnc(-c2ccncc2Nc2ccc(Br)cc2F)o1 [Example 127, 2-{5-[3-(4-Bromo-2-fluoro-phenylamino)-pyridin-4-yl]-[1,3,4]oxadiazol-2-ylamino}-ethanol] | ++ (a caco A-B and caco B-A value of 11-100) | ++ (a caco A-B and caco B-A value of 11-100) |  | 
